We go through 3 molecules from paper PMC5452050 (ACS Omega, 2017).

Substitutions are numbered along the chain they refer to.

Assay [1] concerns the target T1, FLT3 (D835V) (Homo sapiens, UniProt P36888, D835V).
T1 sequence (P36888 27-993 D835V): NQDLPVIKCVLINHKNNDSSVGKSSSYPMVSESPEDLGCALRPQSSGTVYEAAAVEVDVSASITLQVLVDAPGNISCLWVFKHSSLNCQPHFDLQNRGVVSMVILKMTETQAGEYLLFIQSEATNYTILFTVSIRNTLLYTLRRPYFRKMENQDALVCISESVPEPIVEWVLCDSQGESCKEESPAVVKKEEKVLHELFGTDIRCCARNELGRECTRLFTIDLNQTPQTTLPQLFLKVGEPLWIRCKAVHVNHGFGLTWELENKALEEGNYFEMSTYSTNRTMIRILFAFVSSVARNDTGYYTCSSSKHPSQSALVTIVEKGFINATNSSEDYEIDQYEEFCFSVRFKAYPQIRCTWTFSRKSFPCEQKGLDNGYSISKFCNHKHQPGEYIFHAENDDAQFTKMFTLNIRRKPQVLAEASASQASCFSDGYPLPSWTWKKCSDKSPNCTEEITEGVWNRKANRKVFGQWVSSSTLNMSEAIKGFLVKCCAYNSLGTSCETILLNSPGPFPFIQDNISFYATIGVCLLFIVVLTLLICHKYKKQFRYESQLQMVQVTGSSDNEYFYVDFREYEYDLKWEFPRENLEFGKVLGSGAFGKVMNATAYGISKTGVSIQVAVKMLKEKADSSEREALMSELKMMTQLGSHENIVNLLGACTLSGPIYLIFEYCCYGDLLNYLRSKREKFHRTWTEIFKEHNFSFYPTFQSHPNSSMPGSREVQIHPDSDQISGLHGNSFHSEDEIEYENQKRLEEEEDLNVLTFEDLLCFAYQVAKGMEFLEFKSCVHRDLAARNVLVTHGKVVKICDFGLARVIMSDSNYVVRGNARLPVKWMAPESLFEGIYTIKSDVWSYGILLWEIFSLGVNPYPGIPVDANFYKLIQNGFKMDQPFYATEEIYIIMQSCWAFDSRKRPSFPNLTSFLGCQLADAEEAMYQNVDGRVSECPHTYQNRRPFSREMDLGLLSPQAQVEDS
Kind of assay: Kd determination. Format: binding.

The target of assay [2] is T2, FLT3 (ITD, F691L) (Homo sapiens, UniProt P36888, F691L/ITD).
T2 sequence (P36888 564-993 F691L): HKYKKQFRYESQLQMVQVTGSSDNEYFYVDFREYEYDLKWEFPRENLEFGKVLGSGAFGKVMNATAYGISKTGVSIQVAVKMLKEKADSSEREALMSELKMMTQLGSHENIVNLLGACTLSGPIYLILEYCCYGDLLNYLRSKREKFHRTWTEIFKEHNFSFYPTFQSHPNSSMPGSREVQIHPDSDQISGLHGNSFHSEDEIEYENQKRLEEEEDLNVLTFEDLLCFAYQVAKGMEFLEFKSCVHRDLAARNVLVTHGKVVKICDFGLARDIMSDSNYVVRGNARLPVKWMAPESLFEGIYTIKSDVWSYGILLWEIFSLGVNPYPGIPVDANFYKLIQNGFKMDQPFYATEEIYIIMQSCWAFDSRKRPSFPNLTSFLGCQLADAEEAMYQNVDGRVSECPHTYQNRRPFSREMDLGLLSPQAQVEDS
Kind of assay: Kd determination. Format: binding.

Assay [3] concerns the target T3, FLT3 (K663Q) (Homo sapiens, UniProt P36888, K663Q).
T3 sequence (P36888 27-993 K663Q): T1 sequence (P36888 27-993 D835V) with K637Q, V809D
As to the kind of experiment: Kd determination. It is filed as binding.

For assay [4], the target named is T4, FLT3-autoinhibited (Homo sapiens, UniProt P36888).
T4 sequence (P36888 564-993 limits assumed): T2 sequence (P36888 564-993 F691L) with L128F
As to the kind of experiment: Kd determination. Format: binding.

The subject of assay [5] is MOLM13^FLT3-ITD cells. As to the kind of experiment: MOLM13 cell viability. Format: cell-based. Conditions: Homo sapiens, MOLM-13, 72 h, read-out: MOLM13^FLT3-ITD IC50.

As usually defined, the Kd is a measure of binding affinity in units of concentration. The low end stands for a tighter complex, the high end for a looser complex. For orientation: IC50 means the concentration that gives 50% inhibition.

`CC(C)Nc1ccnc(Nc2ccccc2-c2ccccc2)n1` [Compound 6a, N^2-([1,1′-Biphenyl]-2-yl)-N^4-isopropylpyrimidine-2,4-diamine]: the Kd in assay [1], in assay [2], in assay [3] and in assay [4] was above 10000 nM throughout. Also, in assay [5], the IC50 is above 10000 nM.
With `c1cncc(-c2cccc(Nc3nccc(NC4CCCCC4)n3)c2)c1` [Compound 1, N^4-Cyclohexyl-N^2-(3-(pyridin-3-yl)phenyl)pyrimidine-2,4-diamine], the dissociation constant (Kd) turned out to be 7.7 nM in assay [1], 270 nM in assay [2], 110 nM in assay [3] and 1100 nM in assay [4]. Also, the IC50 in assay [5] was 620 nM.
Turning to `CC(C)Nc1ccnc(Nc2cccc(-c3cccnc3)c2)n1` [Compound 5e, N^4-Isopropyl-N^2-(3-(pyridin-3-yl)phenyl)pyrimidine-2,4-diamine], the Kd in assay [1] is 0.8 nM; in assay [2], 11 nM; in assay [3] it was 13 nM; in assay [4] it was 78 nM. The IC50 in assay [5] is 136 nM.
